Assay results from PubChem BioAssay (NCI).
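GI50: concentration for 50% inhibition of growth. The concentration for full growth arrest is given as TGI.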

Legend:
Assay in all cases: NCI-60 cell line screen, 384-well format
[1] = test system: U251 glioblastoma
[2] = test system: SF-268 CNS
[3] = test system: COLO 205 colon
[4] = test system: HOP-92 NSCLC
[5] = test system: MDA-MB-435 melanoma
[6] = test system: HL-60(TB) leukemia
[7] = test system: SF-539 CNS
[8] = test system: NCI-H322M lung
[9] = test system: 786-0 renal
[10] = test system: IGROV1 ovarian
[11] = test system: MOLT-4 leukemia
[12] = test system: OVCAR-4 ovarian
[13] = test system: HCC-2998 colon
[14] = test system: A549 NSCLC
[15] = test system: NCI-H460 NSCLC
[16] = test system: UO-31 renal
[17] = test system: UACC-62 melanoma
[18] = test system: MDA-MB-231 breast
[19] = test system: EKVX NSCLC
[20] = test system: NCI/ADR-RES ovarian
[21] = test system: MCF7 breast
[22] = test system: SW-620 colon
[23] = test system: SN12C renal
[24] = test system: K-562 leukemia
[25] = test system: A498 renal
[26] = test system: HCT-15 colon
[27] = test system: SF-295 CNS
[28] = test system: SNB-19 CNS
[29] = test system: DU-145 prostate
[30] = test system: SR leukemia
[31] = test system: SK-MEL-28 melanoma
[32] = test system: SNB-75 CNS
[33] = test system: OVCAR-3 ovarian
[34] = test system: SK-MEL-2 melanoma
[35] = test system: SK-OV-3 ovarian
[36] = test system: MALME-3M melanoma
[37] = test system: KM12 colon
[38] = test system: UACC-257 melanoma
[39] = test system: HS 578T breast
[40] = test system: M14 melanoma
[41] = test system: OVCAR-5 ovarian
[42] = test system: NCI-H522 lung
[43] = test system: RXF 393 renal
[44] = test system: MDA-MB-468 breast
[45] = test system: SK-MEL-5 melanoma
[46] = test system: NCI-H226 lung
[47] = test system: CAKI-1 renal
[48] = test system: HT29 colon
[49] = test system: T-47D breast
[50] = test system: BT-549 breast
[51] = test system: LOX IMVI melanoma
[52] = test system: CCRF-CEM leukemia
[53] = test system: PC-3 prostate
[54] = test system: RPMI-8226 leukemia
[55] = test system: NCI-H23 lung
[56] = test system: ACHN renal
[57] = test system: HOP-62 NSCLC
[58] = test system: TK-10 renal
[59] = test system: HCT-116 colon

Question: For `Cc1ccc(NS(=O)(=O)c2cccc(C#N)c2)c2[nH]cc(C#N)c12`, which GI50 [1] is on record?
Answer: 16.9 µM

Question: What about the TGI [1] of the same compound?
Answer: > 100 µM

Question: What about the GI50 [2] of the same compound?
Answer: 37.4 µM

Question: And the TGI [2]?
Answer: > 100 µM

Question: And the GI50 [3]?
Answer: 10.5 µM

Question: And the TGI [3]?
Answer: > 100 µM

Question: And the GI50 [4]?
Answer: 19.9 µM

Question: What about the TGI [4] of the same compound?
Answer: 54.6 µM

Question: And the GI50 [5]?
Answer: 10.6 µM

Question: What about the TGI [5] of the same compound?
Answer: 44.5 µM

Question: And the GI50 [6]?
Answer: 12 µM

Question: And the TGI [6]?
Answer: 26 µM

Question: What about the GI50 [7] of the same compound?
Answer: 37.5 µM

Question: What about the TGI [7] of the same compound?
Answer: > 100 µM

Question: And the GI50 [8]?
Answer: 39.4 µM

Question: What about the TGI [8] of the same compound?
Answer: > 100 µM

Question: What about the GI50 [9] of the same compound?
Answer: 11.7 µM

Question: What about the TGI [9] of the same compound?
Answer: > 100 µM

Question: And the GI50 [10]?
Answer: 0.247 µM

Question: What about the TGI [10] of the same compound?
Answer: > 100 µM

Question: And the GI50 [11]?
Answer: 0.66 µM

Question: What about the TGI [11] of the same compound?
Answer: 13.6 µM

Question: And the GI50 [12]?
Answer: 18.2 µM

Question: And the TGI [12]?
Answer: > 100 µM

Question: And the GI50 [13]?
Answer: 24 µM

Question: And the TGI [13]?
Answer: > 100 µM

Question: What about the GI50 [14] of the same compound?
Answer: 15.1 µM

Question: What about the TGI [14] of the same compound?
Answer: > 100 µM

Question: What about the GI50 [15] of the same compound?
Answer: 17.6 µM

Question: What about the TGI [15] of the same compound?
Answer: > 100 µM

Question: What about the GI50 [16] of the same compound?
Answer: 17.8 µM

Question: And the TGI [16]?
Answer: 53.9 µM

Question: And the GI50 [17]?
Answer: 0.777 µM

Question: What about the TGI [17] of the same compound?
Answer: 28 µM

Question: What about the GI50 [18] of the same compound?
Answer: 14.7 µM

Question: And the TGI [18]?
Answer: > 100 µM

Question: What about the GI50 [19] of the same compound?
Answer: 28.7 µM

Question: And the TGI [19]?
Answer: 83.9 µM

Question: And the GI50 [20]?
Answer: 1.24 µM

Question: And the TGI [20]?
Answer: > 100 µM

Question: And the GI50 [21]?
Answer: 11 µM

Question: What about the TGI [21] of the same compound?
Answer: > 100 µM

Question: What about the GI50 [22] of the same compound?
Answer: 14.7 µM

Question: And the TGI [22]?
Answer: > 100 µM

Question: And the GI50 [23]?
Answer: 27.7 µM

Question: And the TGI [23]?
Answer: > 100 µM

Question: What about the GI50 [24] of the same compound?
Answer: 0.525 µM

Question: And the TGI [24]?
Answer: > 100 µM

Question: And the GI50 [25]?
Answer: 19.7 µM

Question: What about the TGI [25] of the same compound?
Answer: > 100 µM

Question: And the GI50 [26]?
Answer: 10.3 µM

Question: And the TGI [26]?
Answer: > 100 µM

Question: What about the GI50 [27] of the same compound?
Answer: 7.23 µM

Question: And the TGI [27]?
Answer: 42.1 µM

Question: What about the GI50 [28] of the same compound?
Answer: 20.2 µM

Question: What about the TGI [28] of the same compound?
Answer: > 100 µM

Question: What about the GI50 [29] of the same compound?
Answer: 4.29 µM

Question: What about the TGI [29] of the same compound?
Answer: > 100 µM

Question: What about the GI50 [30] of the same compound?
Answer: 0.155 µM

Question: And the TGI [30]?
Answer: 0.799 µM

Question: What about the GI50 [31] of the same compound?
Answer: 32.9 µM

Question: And the TGI [31]?
Answer: 95.9 µM

Question: And the GI50 [32]?
Answer: 29.9 µM

Question: What about the TGI [32] of the same compound?
Answer: > 100 µM

Question: And the GI50 [33]?
Answer: 22.2 µM

Question: And the TGI [33]?
Answer: 87.6 µM

Question: What about the GI50 [34] of the same compound?
Answer: 33.3 µM

Question: What about the TGI [34] of the same compound?
Answer: 60 µM

Question: And the GI50 [35]?
Answer: 6.53 µM

Question: What about the TGI [35] of the same compound?
Answer: > 100 µM

Question: What about the GI50 [36] of the same compound?
Answer: 61.7 µM

Question: And the TGI [36]?
Answer: > 100 µM

Question: And the GI50 [37]?
Answer: 27.1 µM

Question: And the TGI [37]?
Answer: > 100 µM

Question: What about the GI50 [38] of the same compound?
Answer: 48.6 µM

Question: What about the TGI [38] of the same compound?
Answer: > 100 µM

Question: And the GI50 [39]?
Answer: 16.2 µM

Question: And the TGI [39]?
Answer: 65.6 µM

Question: And the GI50 [40]?
Answer: 26.5 µM

Question: And the TGI [40]?
Answer: > 100 µM

Question: What about the GI50 [41] of the same compound?
Answer: 31.1 µM

Question: What about the TGI [41] of the same compound?
Answer: > 100 µM

Question: What about the GI50 [42] of the same compound?
Answer: 0.292 µM

Question: And the TGI [42]?
Answer: 15.3 µM

Question: And the GI50 [43]?
Answer: 15.6 µM

Question: And the TGI [43]?
Answer: 52.7 µM

Question: What about the GI50 [44] of the same compound?
Answer: 0.165 µM

Question: What about the TGI [44] of the same compound?
Answer: 0.629 µM

Question: And the GI50 [45]?
Answer: 15.7 µM

Question: And the TGI [45]?
Answer: 38 µM

Question: What about the GI50 [46] of the same compound?
Answer: 12.4 µM

Question: And the TGI [46]?
Answer: 70.6 µM

Question: What about the GI50 [47] of the same compound?
Answer: 18 µM

Question: What about the TGI [47] of the same compound?
Answer: > 100 µM

Question: And the GI50 [48]?
Answer: 47.2 µM

Question: What about the TGI [48] of the same compound?
Answer: > 100 µM

Question: And the GI50 [49]?
Answer: 23.1 µM

Question: What about the TGI [49] of the same compound?
Answer: 79.2 µM

Question: What about the GI50 [50] of the same compound?
Answer: 24.9 µM

Question: What about the TGI [50] of the same compound?
Answer: 57.6 µM

Question: What about the GI50 [51] of the same compound?
Answer: 32.1 µM

Question: What about the TGI [51] of the same compound?
Answer: > 100 µM

Question: And the GI50 [52]?
Answer: 15.1 µM

Question: And the TGI [52]?
Answer: 43.3 µM

Question: And the GI50 [53]?
Answer: 1.44 µM

Question: What about the TGI [53] of the same compound?
Answer: > 100 µM

Question: What about the GI50 [54] of the same compound?
Answer: 14.5 µM

Question: And the TGI [54]?
Answer: 47.7 µM

Question: And the GI50 [55]?
Answer: 20 µM

Question: And the TGI [55]?
Answer: 43.9 µM

Question: And the GI50 [56]?
Answer: 10.4 µM

Question: And the TGI [56]?
Answer: > 100 µM

Question: What about the GI50 [57] of the same compound?
Answer: 12.2 µM

Question: And the TGI [57]?
Answer: > 100 µM

Question: And the GI50 [58]?
Answer: 5.02 µM

Question: What about the TGI [58] of the same compound?
Answer: > 100 µM

Question: And the GI50 [59]?
Answer: 0.246 µM

Question: And the TGI [59]?
Answer: > 100 µM
